In patent US7897620B2, “Methods of using anti-inflammatory compounds” (Cambridge Enterprise Limited, priority 2007, dated 2011):

Columns and labels:
[1] = test system: lung leukocyte recruitment and T-helper cell polarisation; assay: Ovalbumin-induced lung inflammation model of asthma (BAL leukocyte count, splenocyte Th1/Th2 ratio); format: in vivo, Brown Norway rat; details: rat, 0.3 mg/kg daily oral
Description: Adult Brown Norway rats (200-300 g body weight; n=10 per group) were sensitised by a single intraperitoneal injection of 0.1 mg Ovalbumin on day 0. Each rat then received an intratracheal challenge with a solution of 1% ovalbumin (w/v) on day 8, and with 2% ovalbumin (w/v) on days 15, 18 and 21. The animals were then sacrificed 3 hours after the final challenge on day 21. Note that ovalbumin (Sigma; purest available grade) was made endotoxin-free by passage over EndoTrap™ Red columns (purchased from Cambrex; used in accordance with the manufacturer's instructions), and the endotoxin level was confirmed as <5 EU/mg protein using the LAL assay (QCL-1000™; Cambrex; performed in accordance with the manufacturer's instructions; 1 mg of standard endotoxin contains ˜900,000 EU/mg). […]
On sacrifice, total lung leukocyate recruitment was assessed by performing a broncheoalveolar lavage (BAL) using 4 lots of 3 ml sterile phosphate-buffered saline introduced through a tracheal cannula. For each animal, the BAL washes were combined, and the total cell population counted (using a haemocytometer). […]
The spleen was also removed from each […] and placed in RPMI+10% FCS+antibiotics. […] The resulting cell suspension was then centrifuged (328 g; 5 mins) and washed in RPMI+10% FCS+antibiotics, before being resuspended in fresh media and counted using a haemocytometer. […]

[2] = Water solubility (observation); format: physicochemical

Structure (SMILES): CC(C)(C)C(=O)N[C@H]1CCCNC1=O [Compound (I′), 3-(2′,2′-dimethylpropanoylamino)-tetrahydropyridin-2-one]
- Th2 polarisation (Th1/Th2 ratio of CD4+ splenocytes) [1]: completely abolishes the Th2 polarisation
- water solubility [2]: extremely water soluble
